From patent US20250319053A1, “INHIBITORS OF THE PEPTIDYL-PROLYL CIS/TRANS ISOMERASE (PIN1), COMBINATIONS AND USES THEREOF” (DANA-FARBER CANCER INSTITUTE, INC., priority 2021, published 2025)

System: WT B6 mice (non-tumor-bearing mice)
Assay: Blood test (CBC, liver, renal) of Pin1i-2 treated non-tumor-bearing B6 mice
Type: in vivo, mouse
Conditions: for CBC BA: Normal Range 0-2; for CBC EO: Normal Range 0-3.9; for CBC MO: Normal Range 0-7.5; for CBC WBC: Normal Range 1.8-10.7; for Liver Alb: Normal Range 1.95-4.74; for CBC RBC: Normal Range 6.36-9.42; for CBC NE: Normal Range 6.6-38.9; for CBC Hb: Normal Range 11-15.1; for Renal BUN: Normal Range 17-57.5; for Liver ALT: Normal Range 30-206; for CBC LY: Normal Range 55.8-91.6; for CBC PLT: Normal Range 592-2972; for Renal Cre: Normal Range <0.15
Procedure: Table 1 is a table of blood test results together with body weight of Pin1i−2 treated non-tumor-bearing B6 mice. See also FIG. 1A-FIG. 1G, FIG. 8A-FIG. 8O, and FIG. 9A-9L. WT B6 mice (non-tumor-bearing mice) were treated with vehicle or Pin1i−2 (20, 40, or 60 mg/kg, i.p., daily) for 5 weeks, followed by examining mice body weight or the RBC, Hb, Plate, and kidney and liver function using blood tests at 3 weeks and 5 weeks (n=5).

For CC(C)(C)CN(C(=O)CCl)C1CCS(=O)(=O)C1 (stereo not drawn) [Pin1i−2, sulfopin], which “CBC BA” value (20 mg/kg i.p. daily, 3 weeks) is on record?
The value was 0.064%.

What about the “CBC EO” value (20 mg/kg i.p. daily, 3 weeks) of the same compound?
Its value is 0.204%.

What about the “CBC MO” value (20 mg/kg i.p. daily, 3 weeks) of the same compound?
Its value is 8.248%.

And the “CBC WBC” value (20 mg/kg i.p. daily, 3 weeks)?
Its value is 7.508 K/uL.

And the “Liver Alb” value (20 mg/kg i.p. daily, 3 weeks)?
Its value is 3.375 g/dL.

And the “CBC RBC” value (20 mg/kg i.p. daily, 3 weeks)?
Its value is 9.424 M/uL.

And the “CBC NE” value (20 mg/kg i.p. daily, 3 weeks)?
The value was 6.5%.

What about the “CBC Hb” value (20 mg/kg i.p. daily, 3 weeks) of the same compound?
Its value is 13.8 g/dL.

And the “Renal BUN” value (20 mg/kg i.p. daily, 3 weeks)?
The value was 31 mg/dL.

And the “Liver ALT” value (20 mg/kg i.p. daily, 3 weeks)?
The value was 41.5 U/L.

What about the “CBC LY” value (20 mg/kg i.p. daily, 3 weeks) of the same compound?
Its value is 84.982%.

And the “CBC PLT” value (20 mg/kg i.p. daily, 3 weeks)?
Its value is 530.4 K/uL.

And the “Renal Cre” value (20 mg/kg i.p. daily, 3 weeks)?
The value was <0.15 mg/dL.

And the “CBC BA” value (20 mg/kg i.p. daily, 5 weeks)?
The value was 0.044%.

And the “CBC EO” value (20 mg/kg i.p. daily, 5 weeks)?
The value was 0.15%.

What about the “CBC MO” value (20 mg/kg i.p. daily, 5 weeks) of the same compound?
The value was 9.16%.

And the “CBC WBC” value (20 mg/kg i.p. daily, 5 weeks)?
Its value is 7.452 K/uL.

And the “Liver Alb” value (20 mg/kg i.p. daily, 5 weeks)?
Its value is 2.94 g/dL.

What about the “CBC RBC” value (20 mg/kg i.p. daily, 5 weeks) of the same compound?
Its value is 9.228 M/uL.

What about the “CBC NE” value (20 mg/kg i.p. daily, 5 weeks) of the same compound?
Its value is 6.134%.

And the “CBC Hb” value (20 mg/kg i.p. daily, 5 weeks)?
The value was 13.38 g/dL.

What about the “Renal BUN” value (20 mg/kg i.p. daily, 5 weeks) of the same compound?
The value was 30.4 mg/dL.

And the “Liver ALT” value (20 mg/kg i.p. daily, 5 weeks)?
Its value is 41.4 U/L.

What about the “CBC LY” value (20 mg/kg i.p. daily, 5 weeks) of the same compound?
Its value is 84.51%.

What about the “CBC PLT” value (20 mg/kg i.p. daily, 5 weeks) of the same compound?
Its value is 612.6 K/uL.

What about the “Renal Cre” value (20 mg/kg i.p. daily, 5 weeks) of the same compound?
The value was <0.15 mg/dL.

And the “CBC BA” value (40 mg/kg i.p. daily, 3 weeks)?
Its value is 0.056%.

And the “CBC EO” value (40 mg/kg i.p. daily, 3 weeks)?
Its value is 0.156%.

What about the “CBC MO” value (40 mg/kg i.p. daily, 3 weeks) of the same compound?
Its value is 8.298%.

And the “CBC WBC” value (40 mg/kg i.p. daily, 3 weeks)?
Its value is 4.76 K/uL.

What about the “Liver Alb” value (40 mg/kg i.p. daily, 3 weeks) of the same compound?
The value was 3.6 g/dL.

And the “CBC RBC” value (40 mg/kg i.p. daily, 3 weeks)?
Its value is 8.698 M/uL.

And the “CBC NE” value (40 mg/kg i.p. daily, 3 weeks)?
Its value is 6.97%.

And the “CBC Hb” value (40 mg/kg i.p. daily, 3 weeks)?
The value was 12.44 g/dL.

What about the “Renal BUN” value (40 mg/kg i.p. daily, 3 weeks) of the same compound?
Its value is 28.8 mg/dL.

And the “Liver ALT” value (40 mg/kg i.p. daily, 3 weeks)?
The value was 41.67 U/L.

And the “CBC LY” value (40 mg/kg i.p. daily, 3 weeks)?
Its value is 84.522%.

What about the “CBC PLT” value (40 mg/kg i.p. daily, 3 weeks) of the same compound?
Its value is 449.2 K/uL.

And the “Renal Cre” value (40 mg/kg i.p. daily, 3 weeks)?
The value was <0.15 mg/dL.

What about the “CBC BA” value (40 mg/kg i.p. daily, 5 weeks) of the same compound?
The value was 0.092%.

And the “CBC EO” value (40 mg/kg i.p. daily, 5 weeks)?
Its value is 0.618%.

What about the “CBC MO” value (40 mg/kg i.p. daily, 5 weeks) of the same compound?
Its value is 9.158%.

What about the “CBC WBC” value (40 mg/kg i.p. daily, 5 weeks) of the same compound?
The value was 5.876 K/uL.

What about the “Liver Alb” value (40 mg/kg i.p. daily, 5 weeks) of the same compound?
The value was 2.98 g/dL.

And the “CBC RBC” value (40 mg/kg i.p. daily, 5 weeks)?
Its value is 9.714 M/uL.

And the “CBC NE” value (40 mg/kg i.p. daily, 5 weeks)?
Its value is 8.926%.

What about the “CBC Hb” value (40 mg/kg i.p. daily, 5 weeks) of the same compound?
The value was 13.38 g/dL.

What about the “Renal BUN” value (40 mg/kg i.p. daily, 5 weeks) of the same compound?
The value was 26.4 mg/dL.

What about the “Liver ALT” value (40 mg/kg i.p. daily, 5 weeks) of the same compound?
Its value is 46.2 U/L.

And the “CBC LY” value (40 mg/kg i.p. daily, 5 weeks)?
Its value is 81.206%.

And the “CBC PLT” value (40 mg/kg i.p. daily, 5 weeks)?
The value was 548.8 K/uL.

What about the “Renal Cre” value (40 mg/kg i.p. daily, 5 weeks) of the same compound?
Its value is <0.15 mg/dL.

And the “CBC BA” value (60 mg/kg i.p. daily, 3 weeks)?
Its value is 0.078%.

What about the “CBC EO” value (60 mg/kg i.p. daily, 3 weeks) of the same compound?
Its value is 0.35%.

And the “CBC MO” value (60 mg/kg i.p. daily, 3 weeks)?
Its value is 9.418%.

And the “CBC WBC” value (60 mg/kg i.p. daily, 3 weeks)?
Its value is 6.712 K/uL.

And the “Liver Alb” value (60 mg/kg i.p. daily, 3 weeks)?
The value was 3.5 g/dL.

What about the “CBC RBC” value (60 mg/kg i.p. daily, 3 weeks) of the same compound?
Its value is 9.858 M/uL.

And the “CBC NE” value (60 mg/kg i.p. daily, 3 weeks)?
The value was 12.606%.

What about the “CBC Hb” value (60 mg/kg i.p. daily, 3 weeks) of the same compound?
The value was 14.76 g/dL.

What about the “Renal BUN” value (60 mg/kg i.p. daily, 3 weeks) of the same compound?
Its value is 25.4 mg/dL.

What about the “Liver ALT” value (60 mg/kg i.p. daily, 3 weeks) of the same compound?
The value was 50.5 U/L.

And the “CBC LY” value (60 mg/kg i.p. daily, 3 weeks)?
Its value is 77.548%.

And the “CBC PLT” value (60 mg/kg i.p. daily, 3 weeks)?
The value was 700.8 K/uL.

What about the “Renal Cre” value (60 mg/kg i.p. daily, 3 weeks) of the same compound?
The value was <0.15 mg/dL.

What about the “CBC BA” value (60 mg/kg i.p. daily, 5 weeks) of the same compound?
Its value is 0.016%.

What about the “CBC EO” value (60 mg/kg i.p. daily, 5 weeks) of the same compound?
Its value is 0.304%.

And the “CBC MO” value (60 mg/kg i.p. daily, 5 weeks)?
Its value is 10.276%.

And the “CBC WBC” value (60 mg/kg i.p. daily, 5 weeks)?
Its value is 5.664 K/uL.

And the “Liver Alb” value (60 mg/kg i.p. daily, 5 weeks)?
The value was 2.72 g/dL.

What about the “CBC RBC” value (60 mg/kg i.p. daily, 5 weeks) of the same compound?
The value was 8.958 M/uL.

What about the “CBC NE” value (60 mg/kg i.p. daily, 5 weeks) of the same compound?
Its value is 7.656%.

And the “CBC Hb” value (60 mg/kg i.p. daily, 5 weeks)?
The value was 12.74 g/dL.

What about the “Renal BUN” value (60 mg/kg i.p. daily, 5 weeks) of the same compound?
Its value is 22.8 mg/dL.

And the “Liver ALT” value (60 mg/kg i.p. daily, 5 weeks)?
The value was 49.2 U/L.

And the “CBC LY” value (60 mg/kg i.p. daily, 5 weeks)?
The value was 81.742%.

What about the “CBC PLT” value (60 mg/kg i.p. daily, 5 weeks) of the same compound?
The value was 618 K/uL.

What about the “Renal Cre” value (60 mg/kg i.p. daily, 5 weeks) of the same compound?
Its value is <0.15 mg/dL.
